Numbering of substitutions follows the chain as printed.
Legend:
[1] = molecular target: T1, Androgen Receptor, VCaP (AR wild type and amplified) (Homo sapiens, UniProt P10275); assay: Androgen Receptor Degradation-Imaging Assay, VCaP cell line; type: cell-based; conditions: 16 hours treatment, maximum observed degradation
T1 construct: endogenous in cells; host or cells: VCaP
T1 sequence (P10275 1-920): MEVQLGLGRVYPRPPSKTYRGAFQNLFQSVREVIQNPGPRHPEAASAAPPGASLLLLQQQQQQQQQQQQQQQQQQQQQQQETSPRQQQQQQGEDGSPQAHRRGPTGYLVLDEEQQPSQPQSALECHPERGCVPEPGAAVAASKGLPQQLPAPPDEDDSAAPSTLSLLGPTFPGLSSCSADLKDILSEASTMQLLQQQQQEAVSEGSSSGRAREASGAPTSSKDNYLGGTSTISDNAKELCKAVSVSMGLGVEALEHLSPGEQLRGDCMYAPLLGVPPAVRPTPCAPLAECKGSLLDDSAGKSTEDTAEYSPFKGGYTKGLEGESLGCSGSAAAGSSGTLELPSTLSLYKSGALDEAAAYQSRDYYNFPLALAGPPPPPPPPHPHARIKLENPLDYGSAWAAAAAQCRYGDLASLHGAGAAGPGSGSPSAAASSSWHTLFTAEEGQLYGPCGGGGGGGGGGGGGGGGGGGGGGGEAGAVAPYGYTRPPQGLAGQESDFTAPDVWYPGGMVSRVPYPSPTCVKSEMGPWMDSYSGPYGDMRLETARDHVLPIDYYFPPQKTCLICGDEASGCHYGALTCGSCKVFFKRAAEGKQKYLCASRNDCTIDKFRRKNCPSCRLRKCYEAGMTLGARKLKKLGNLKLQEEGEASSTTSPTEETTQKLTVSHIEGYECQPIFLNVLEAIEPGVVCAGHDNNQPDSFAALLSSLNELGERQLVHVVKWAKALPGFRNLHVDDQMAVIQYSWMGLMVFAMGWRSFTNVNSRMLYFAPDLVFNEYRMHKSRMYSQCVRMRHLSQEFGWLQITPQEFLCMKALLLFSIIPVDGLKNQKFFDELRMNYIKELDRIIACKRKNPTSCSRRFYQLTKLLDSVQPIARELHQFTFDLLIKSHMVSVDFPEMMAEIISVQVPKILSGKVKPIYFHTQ
Method: (§1) Degradation of Androgen Receptor (AR) protein in human prostate cancer cell lines (MDA-PCa-2b (AR T878A/L702H), LNCaP (AR T878A), VCaP (AR wild type and amplified) 22RV1 (AR H875Y) and PC3 (AR negative control)) treated with AR PROTACs was quantified using immunofluorescence. Prostate cancer cells were plated (MDA-PCa-2b, and VCaP 16,000 cells/well; LNCaP and 22RV1 32,000 cells/well, and PC3 8,000 cells/well) in an optical bottom 96-well cell culture plate and allowed to attach overnight. The prostate cancer cell lines were treated for 16 hours with a 10-point 3-fold dilution series (dose range=0.02 nM to 333 nM). PC3 is included as an AR negative control and not treated with compound. Cells are fixed and permeabilized with 4% formaldehyde, blocked with 10% goat serum in immunofluorescence (IF) buffer (130 mM NaCl, 7 mM Na2HPO4, 3.5 mM NaH2PO4, 7.7 mM NaN3, 0.1% BSA, 0.2% Triton X, 0.05% Tween 20) prior to overnight incubation with rabbit antibody specific for C terminus of AR (commercially available from RevMaB Biosciences). Following washes with IF buffer, cells were incubated with fluorescent secondary antibody (Goat anti-rabbit Alexa 647; commercially available from Invitrogen) and Hoechst nuclear stain (commercially available from Themo Scientific) prior to quantification of nuclear AR levels via Opera Phenix high-content fluorescent imager using a 40× water objective. Image analysis was performed with Harmony software.
(§2) The averaged nuclear Alexa 647 median fluorescence intensity (MFI) of PC3 cells is subtracted from the nuclear Alexa 647 MFI of PROTAC treated and DMSO control treated cells. % AR remaining is calculated for PROTAC treatments as a percent of the DMSO control (MFI PROTAC treated/MFI DMSO control treated)*100). DC50 and the Dmax values, were obtained from these normalised values fitted with a 4-parameter sigmoidal response curve (Xlfit software). The DC50 is the interpolated concentration of PROTAC corresponding to 50% of the protein being degraded, and the Dmax parameter is the maximum experimentally observed degradation.

[2] = molecular target: T2, Androgen Receptor, MDA-PCa-2b (AR T878A/L702H) (Homo sapiens, UniProt P10275, L702H/T878A); assay: Androgen Receptor Degradation-Imaging Assay, MDA-PCa-2b cell line; type: cell-based; conditions: 16 hours treatment, maximum observed degradation
T2 construct: host or cells: MDA-PCa-2b
T2 sequence (P10275 1-920 L702H/T878A): T1 sequence (P10275 1-920) with L702H, T878A
Method: as §1, §2

Row | Dmax [1] | Dmax [2] | Compound
1 | ≥ 80% | ≥ 80% | CC1(C)[C@H](NC(=O)c2ccc(N3CCC(CN4CCC(n5ccc6c(N7CCC(=O)NC7=O)cc(F)cc65)CC4)CC3)c(F)c2)C(C)(C)[C@H]1Oc1ccc(C#N)c2ncccc12 [Example 32, N-((1r,3r)-3-((8-Cyanoquinolin-5-yl)oxy)-2,2,4,4-tetramethylcyclobutyl)-4-(4-((4-(4-(2,4-dioxotetrahydropyrimidin-1(2H)-yl)-6-fluoro-1H-indol-1-yl)piperidin-1-yl)methyl)piperidin-1-yl)-3-fluorobenzamide]
2 | ≥ 80% | ≥ 80% | CC1(C)[C@H](NC(=O)c2ccc(N3CCC(CN4CCC(n5ncc6c(N7CCC(=O)NC7=O)c(F)ccc65)CC4)CC3)c(F)c2)C(C)(C)[C@H]1Oc1ccc(C#N)c2ncccc12 [Example 50, N-((1r,3r)-3-((8-Cyanoquinolin-5-yl)oxy)-2,2,4,4-tetramethylcyclobutyl)-4-(4-((4-(4-(2,4-dioxotetrahydropyrimidin-1(2H)-yl)-5-fluoro-1H-indazol-1-yl)piperidin-1-yl)methyl)piperidin-1-yl)-3-fluorobenzamide]
3 | ≥ 80% | ≥ 80% | CC1(C)[C@H](NC(=O)c2ccc(N3CCC(CN4CCC(n5ccc6c(N7CCC(=O)NC7=O)cccc65)CC4)CC3)cc2)C(C)(C)[C@H]1Oc1ccc(C#N)c2ncccc12 [Example 43, N-((1r,3r)-3-((8-Cyanoquinolin-5-yl)oxy)-2,2,4,4-tetramethylcyclobutyl)-4-(4-((4-(4-(2,4-dioxotetrahydropyrimidin-1(2H)-yl)-1H-indol-1-yl)piperidin-1-yl)methyl)piperidin-1-yl)benzamide]
4 | ≥ 80% | ≥ 80% | CC1(C)[C@H](NC(=O)c2ccc(N3CCC4(CC3)CC(N3CCC(n5ncc6c(N7CCC(=O)NC7=O)cccc65)CC3)C4)c(F)c2)C(C)(C)[C@H]1Oc1ccc(C#N)c2ncccc12 [Example 49, N-((1r,3r)-3-((8-Cyanoquinolin-5-yl)oxy)-2,2,4,4-tetramethylcyclobutyl)-4-(2-(4-(4-(2,4-dioxotetrahydropyrimidin-1(2H)-yl)-1H-indazol-1-yl)piperidin-1-yl)-7-azaspiro[3.5]nonan-7-yl)-3-fluorobenzamide]
5 | ≥ 80% | ≥ 80% | CC1(C)[C@H](NC(=O)c2ccc(N3CCC(CN4CCC(n5ncc6c(N7CCC(=O)NC7=O)cccc65)CC4)CC3)c(F)c2)C(C)(C)[C@H]1Oc1ccc(C#N)c2ncccc12 [Example 6, N-((1r,3r)-3-((8-Cyanoquinolin-5-yl)oxy)-2,2,4,4-tetramethylcyclobutyl)-4-(4-((4-(4-(2,4-dioxotetrahydropyrimidin-1(2H)-yl)-1H-indazol-1-yl)piperidin-1-yl)methyl)piperidin-1-yl)-3-fluorobenzamide]
6 | ≥ 80% | ≥ 80% | COc1cc(O[C@H]2C(C)(C)[C@H](NC(=O)c3ccc(N4CCC(CN5CCC(n6ncc7c(N8CCC(=O)NC8=O)cccc76)CC5)CC4)cc3)C2(C)C)ccc1C#N [Example 15, N-((1r,3r)-3-(4-Cyano-3-methoxyphenoxy)-2,2,4,4-tetramethylcyclobutyl)-4-(4-((4-(4-(2,4-dioxotetrahydropyrimidin-1(2H)-yl)-1H-indazol-1-yl)piperidin-1-yl)methyl)piperidin-1-yl)benzamide]
7 | ≥ 80% | ≥ 80% | COc1cc(O[C@H]2C(C)(C)[C@H](NC(=O)c3ccc(N4CCC(CN5CCC(n6ncc7c(N8CCC(=O)NC8=O)nccc76)CC5)CC4)c(F)c3)C2(C)C)ccc1C#N [Example 20, N-((1r,3r)-3-(4-Cyano-3-methoxyphenoxy)-2,2,4,4-tetramethylcyclobutyl)-4-(4-((4-(4-(2,4-dioxotetrahydropyrimidin-1(2H)-yl)-1H-pyrazolo[4,3-c]pyridin-1-yl)piperidin-1-yl)methyl)piperidin-1-yl)-3-fluorobenzamide]
8 | ≥ 80% | ≥ 80% | CC1(C)[C@H](NC(=O)c2ccc(N3CCC(CN4CCC(n5ccc6c(N7CCC(=O)NC7=O)ncnc65)CC4)CC3)c(F)c2)C(C)(C)[C@H]1Oc1ccc(C#N)c2ncccc12 [Example 47, N-((1r,3r)-3-((8-Cyanoquinolin-5-yl)oxy)-2,2,4,4-tetramethylcyclobutyl)-4-(4-((4-(4-(2,4-dioxotetrahydropyrimidin-1(2H)-yl)-7H-pyrrolo[2,3-d]pyrimidin-7-yl)piperidin-1-yl)methyl)piperidin-1-yl)-3-fluorobenzamide]
9 | ≥ 80% | ≥ 80% | CC1(C)[C@H](NC(=O)c2ccc(N3CCC(CN4CCC(n5ccc6c(N7CCC(=O)NC7=O)cccc65)CC4)CC3)c(F)c2)C(C)(C)[C@H]1Oc1ccc(C#N)c2ncccc12 [Example 31, N-((1r,3r)-3-((8-Cyanoquinolin-5-yl)oxy)-2,2,4,4-tetramethylcyclobutyl)-4-(4-((4-(4-(2,4-dioxotetrahydropyrimidin-1(2H)-yl)-1H-indol-1-yl)piperidin-1-yl)methyl)piperidin-1-yl)-3-fluorobenzamide]
10 | ≥ 80% | ≥ 80% | CC1(C)[C@H](NC(=O)c2ccc(N3CCC(CN4CCC(n5ncc6c(N7CCC(=O)NC7=O)nccc65)CC4)CC3)c(F)c2)C(C)(C)[C@H]1Oc1ccc(C#N)c2ncccc12 [Example 39, N-((1r,3r)-3-((8-Cyanoquinolin-5-yl)oxy)-2,2,4,4-tetramethylcyclobutyl)-4-(4-((4-(4-(2,4-dioxotetrahydropyrimidin-1(2H)-yl)-1H-pyrazolo[4,3-c]pyridin-1-yl)piperidin-1-yl)methyl)piperidin-1-yl)-3-fluorobenzamide]

Source: US12577231B2, “Androgen receptor PROTACS” (GlaxoSmithKline Intellectual Property Development Limited, priority 2023, dated 2026)
